What was measured:
KRas G13D = target: T1, KRas G13D (Homo sapiens, UniProt P01116, G13D); assay: KRas binding assay (TR-FRET displacement);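 also: One-hour room temperature incubation before TR-FRET reading, IC50 from a four-parameter curve fit to percent-of-control data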
T1 construct: Biotinylated KRas (corresponding to amino acids 1-169, produced at Accelegan Inc.); biotin (biotinylated); purchased Accelegan Inc
Method: (§1) The ability of a compound to bind to KRas was measured using a TR-FRET displacement assay. […] After a 60-minute incubation at room temperature, the reaction was measured using a BMG LABTECH CLARIO star Plus via TR-FRET. […] The POC values were fit to a 4-parameter IC50 equation and the IC50 value reported.

KRas G12S = KRas G12S (Homo sapiens, UniProt P01116, G12S); assay: biochemical;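 also: TR-FRET displacement binding to KRas, read after one hour incubation at room temperature, IC50 from four-parameter fit of percent of control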
KRas G12S, sequence (P01116 1-169 isoform P01116-2 G12S): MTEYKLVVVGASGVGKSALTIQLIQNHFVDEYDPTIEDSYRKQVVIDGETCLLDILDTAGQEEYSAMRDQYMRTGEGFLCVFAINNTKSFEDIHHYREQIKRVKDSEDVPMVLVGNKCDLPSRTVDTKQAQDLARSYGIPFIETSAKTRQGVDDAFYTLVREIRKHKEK
Method: as §1

KRas Q61H = target: T2, KRas Q61H (Homo sapiens, UniProt P01116, Q61H); assay: KRas binding assay (TR-FRET displacement);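 also: TR-FRET signal read after one hour at room temperature, IC50 derived by four-parameter fitting of percent-of-control values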
T2 construct: Biotinylated KRas (corresponding to amino acids 1-169, produced at Accelegan Inc.); biotin (biotinylated); purchased Accelegan Inc
T2 sequence (P01116 1-169 isoform P01116-2 Q61H): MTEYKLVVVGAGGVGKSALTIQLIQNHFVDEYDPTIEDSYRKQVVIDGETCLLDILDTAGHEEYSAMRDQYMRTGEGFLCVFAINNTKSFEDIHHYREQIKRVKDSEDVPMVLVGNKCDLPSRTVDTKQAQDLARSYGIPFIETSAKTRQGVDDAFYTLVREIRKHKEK
Method: as §1

KRas G12R = KRas G12R (Homo sapiens, UniProt P01116, G12R); assay: biochemical;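 also: TR-FRET displacement assay of compound binding to KRas, read after one hour at room temperature, potency from a four-parameter fit of percent-of-control values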
KRas G12R, sequence (P01116 1-169 isoform P01116-2 G12R): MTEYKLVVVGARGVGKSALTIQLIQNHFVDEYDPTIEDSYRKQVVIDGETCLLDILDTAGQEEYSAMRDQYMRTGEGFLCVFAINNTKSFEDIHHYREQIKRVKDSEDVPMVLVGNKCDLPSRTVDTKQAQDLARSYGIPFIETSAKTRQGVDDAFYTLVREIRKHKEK
Method: as §1

KRas G12V = KRas G12V (Homo sapiens, UniProt P01116, G12V); assay: biochemical;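 also: KRas binding measured by TR-FRET displacement at room temperature, IC50 fitted from percent of control values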
KRas G12V, sequence (P01116 1-169 isoform P01116-2 G12V): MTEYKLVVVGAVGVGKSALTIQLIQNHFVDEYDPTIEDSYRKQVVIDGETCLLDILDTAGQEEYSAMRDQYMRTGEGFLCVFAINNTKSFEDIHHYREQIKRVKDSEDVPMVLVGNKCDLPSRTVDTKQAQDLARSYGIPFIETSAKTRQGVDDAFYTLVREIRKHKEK
Method: as §1

KRas G12C = KRas G12C (Homo sapiens, UniProt P01116, G12C); assay: biochemical;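 also: binding to KRas assessed by TR-FRET displacement after one hour incubation at room temperature, potency fitted from percent-of-control values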
KRas G12C, sequence (P01116 1-169 isoform P01116-2 G12C): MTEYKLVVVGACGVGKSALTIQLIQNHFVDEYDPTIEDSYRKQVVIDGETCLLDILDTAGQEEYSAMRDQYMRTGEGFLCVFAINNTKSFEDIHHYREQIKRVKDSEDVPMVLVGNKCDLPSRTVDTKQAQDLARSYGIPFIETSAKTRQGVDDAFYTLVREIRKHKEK
Method: as §1

KRas WT = KRas WT (Homo sapiens, UniProt P01116); assay: biochemical;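 also: binding to KRas read as TR-FRET displacement after a one-hour room-temperature incubation, IC50 derived from percent-of-control values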
KRas WT, sequence (P01116 1-169 isoform P01116-2): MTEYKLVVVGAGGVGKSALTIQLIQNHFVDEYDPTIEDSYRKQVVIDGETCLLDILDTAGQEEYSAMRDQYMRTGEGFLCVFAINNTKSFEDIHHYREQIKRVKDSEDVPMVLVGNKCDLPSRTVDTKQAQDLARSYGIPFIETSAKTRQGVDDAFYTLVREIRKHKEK
Method: as §1

KRas G12D = KRas G12D (Homo sapiens, UniProt P01116, G12D); assay: biochemical;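 also: TR-FRET displacement binding assay on KRas, read after a one-hour incubation at room temperature, IC50 fitted from percent-of-control values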
KRas G12D, sequence (P01116 1-169 isoform P01116-2 G12D): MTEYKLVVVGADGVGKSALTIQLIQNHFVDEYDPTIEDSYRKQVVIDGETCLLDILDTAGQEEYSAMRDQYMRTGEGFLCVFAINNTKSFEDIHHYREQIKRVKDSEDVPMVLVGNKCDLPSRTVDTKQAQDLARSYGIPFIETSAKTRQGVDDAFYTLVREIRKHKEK
Method: as §1

KRas G12A = KRas G12A (Homo sapiens, UniProt P01116, G12A); assay: biochemical;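 also: binding to KRas measured by TR-FRET displacement after one hour at room temperature, IC50 from a four-parameter fit of percent-of-control values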
KRas G12A, sequence (P01116 1-169 isoform P01116-2 G12A): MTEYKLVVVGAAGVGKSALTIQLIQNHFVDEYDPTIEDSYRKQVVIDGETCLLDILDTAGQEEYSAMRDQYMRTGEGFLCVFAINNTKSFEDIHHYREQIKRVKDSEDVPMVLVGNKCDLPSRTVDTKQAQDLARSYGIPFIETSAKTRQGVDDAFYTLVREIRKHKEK
Method: as §1

T1 sequence (P01116 1-169 isoform P01116-2 G13D): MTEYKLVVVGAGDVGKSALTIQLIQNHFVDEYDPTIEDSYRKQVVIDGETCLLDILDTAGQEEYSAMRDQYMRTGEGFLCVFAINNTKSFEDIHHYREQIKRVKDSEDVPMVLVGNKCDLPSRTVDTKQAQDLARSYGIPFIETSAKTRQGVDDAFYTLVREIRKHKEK

SMILES	IC50 (KRas G13D) [nM]	IC50 (KRas G12S) [µM]	IC50 (KRas Q61H) [nM]	IC50 (KRas G12R) [µM]	IC50 (KRas G12V) [µM]	IC50 (KRas G12C) [µM]	IC50 (KRas WT) [µM]	IC50 (KRas G12D) [µM]	IC50 (KRas G12A) [µM]
Nc1cc2n(n1)CCCN(c1nc(OCC34CCCN3CCC4)nc3c(F)c(-c4cccc5cccc(F)c45)ncc13)C2 [Example 78, 5-(8-fluoro-7-(8-fluoronaphthalen-1-yl)-2-((hexahydro-1H-pyrrolizin-7a-yl)methoxy)pyrido[4,3-d]pyrimidin-4-yl)-5,6,7,8-tetrahydro-4H-pyrazolo[1,5-a][1,4]diazepin-2-amine]	3800	1.24	3300	1.76	1.53	1.26	2.68	0.677	2.2
OC1CC2CC1CN(c1nc(OCC34CCCN3CCC4)nc3c(F)c(-c4cccc5cccc(F)c45)ncc13)C2 (stereo not drawn) [Example 81, 3-(8-fluoro-7-(8-fluoronaphthalen-1-yl)-2-((hexahydro-1H-pyrrolizin-7a-yl)methoxy)pyrido[4,3-d]pyrimidin 4-yl)-3-azabicyclo[3.2.1]octan-6-ol]	860	0.531	1170	1.04	0.802	0.891	0.864	3.56	0.759
OCC1COCCN(c2nc(OCC34CCCN3CCC4)nc3c(F)c(-c4cccc5cccc(F)c45)ncc23)C1 (stereo not drawn) [Example 83, (4-(8-fluoro-7-(8-fluoronaphthalen-1-yl)-2-((hexahydro-1H-pyrrolizin-7a-yl)methoxy)pyrido[4,3-d]pyrimidin-4-yl)-1,4-oxazepan-6-yl)methanol]	1890	0.703	1990	0.992	0.498	0.509	1.2	0.392	0.735
Fc1c(-c2cccc3cccc(F)c23)ncc2c(NCCCc3cc[nH]n3)nc(OCC34CCCN3CCC4)nc12 [Example 84, N-(3-(1H-pyrazol-3-yl)propyl)-8-fluoro-7-(8-fluoronaphthalen-1-yl)-2-((hexahydro-1H-pyrrolizin-7a-yl)methoxy)pyrido[4,3-d] pyrimidin-4-amine]	5070	2.07	5860	2.5	1.86	0.863	4.29	12.7	1.65
OCC12CC(Nc3nc(OCC45CCCN4CCC5)nc4c(F)c(-c5cccc6cccc(F)c56)ncc34)(C1)C2 [Example 85, (3-((8-fluoro-7-(8-fluoronaphthalen-1-yl)-2-((hexahydro-1H-pyrrolizin-7a-yl)methoxy)pyrido[4,3-d]pyrimidin-4-yl)amino)bicyclo[1.1.1]pentan-1-yl)methanol]	4660	4.64	10900	2.12	3.7	2.15	4.52	44	2.85
NC(=O)C1CCCN(c2nc(OCC34CCCN3CCC4)nc3c(F)c(-c4cccc5cccc(F)c45)ncc23)C1 (stereo not drawn) [Example 86, 1-(8-fluoro-7-(8-fluoronaphthalen-1-yl)-2-((hexahydro-1H-pyrrolizin-7a-yl)methoxy)pyrido[4,3-d]pyrimidin-4-yl)piperidine-3-carboxamide]	3000	2.39	4780	8.49	3.1	3.08	2.41	6.9	2.25
N#CC1CCCN(c2nc(OCC34CCCN3CCC4)nc3c(F)c(-c4cccc5cccc(F)c45)ncc23)CC1 (stereo not drawn) [Example 87, 1-(8-fluoro-7-(8-fluoronaphthalen-1-yl)-2-((hexahydro-1H-pyrrolizin-7a-yl)methoxy)pyrido[4,3-d]pyrimidin-4-yl)azepane-4-carbonitrile]	5260	10.8	9500	11.9	3.66	5.94	6.09	3.36	7.12
O=C(O)[C@H]1C[C@H](Nc2nc(OCC34CCCN3CCC4)nc3c(F)c(-c4cccc5cccc(F)c45)ncc23)C1 [Example 91, trans-3-((8-fluoro-7-(8-fluoronaphthalen-1-yl)-2-((tetrahydro-1H-pyrrolizin-7a(5H)-yl)methoxy)pyrido[4,3-d]pyrimidin-4-yl)amino)cyclobutane-1-carboxylic acid]	36600	17.9	31400	2.2	12.7	11.3	14.1	≥ 100	12.7
Fc1c(-c2cccc3cccc(F)c23)ncc2c(NCc3ncc4cc[nH]c4n3)nc(OCC34CCCN3CCC4)nc12 [Example 92, N-((7H-pyrrolo[2,3-d]pyrimidin-2-yl)methyl)-8-fluoro-7-(8-fluoronaphthalen-1-yl)-2-((hexahydro-1H-pyrrolizin-7a-yl)methoxy)pyrido[4,3-d]pyrimidin-4-amine]	8560	6.87	17300	1.98	1.72	3.41	8.8	20.8	6.55
Fc1c(-c2cccc3cccc(F)c23)ncc2c(NCc3cn[nH]c3)nc(OCC34CCCN3CCC4)nc12 [Example 93, N-((1H-pyrazol-4-yl)methyl)-8-fluoro-7-(8-fluoronaphthalen-1-yl)-2-((hexahydro-1H-pyrrolizin-7a-yl)methoxy)pyrido[4,3-d]pyrimidin-4-amine]	20400	10.2	21800	3.39	2.93	4.05	14.9	83.6	7.84
O=S1(=O)CC(Nc2nc(OCC34CCCN3CCC4)nc3c(F)c(-c4cccc5cccc(F)c45)ncc23)C1 [Example 95, 3-((8-fluoro-7-(8-fluoronaphthalen-1-yl)-2-((hexahydro-1H-pyrrolizin-7a-yl)methoxy)pyrido[4,3-d]pyrimidin-4-yl)amino)thietane1,1-dioxide]	7180	4.12	10300	3.06	4.99	3.62	3.99	55	5

Continued by falling IC50 (KRas G13D), values first:

IC50 (KRas G13D) [nM]	IC50 (KRas G12S) [µM]	IC50 (KRas Q61H) [nM]	IC50 (KRas G12R) [µM]	IC50 (KRas G12V) [µM]	IC50 (KRas G12C) [µM]	IC50 (KRas WT) [µM]	IC50 (KRas G12D) [µM]	IC50 (KRas G12A) [µM]	SMILES
9310	4.24	14700	4.37	2.18	2.51	7.17	30.7	1.82	Cn1cc(CNc2nc(OCC34CCCN3CCC4)nc3c(F)c(-c4cccc5cccc(F)c45)ncc23)ccc1=O [Example 88, 5-(((8-fluoro-7-(8-fluoronaphthalen-1-yl)-2-((hexahydro-1H-pyrrolizin-7a-yl)methoxy)pyrido[4,3-d]pyrimidin-4-yl)amino)methyl)-methylpyridin-2 (1H)-one]
8210	6.48	19600	4.19	3.47	4.18	7.24	40.2	5.14	OC12CC(Nc3nc(OCC45CCCN4CCC5)nc4c(F)c(-c5cccc6cccc(F)c56)ncc34)(C1)C2 [Example 90, 3-((8-fluoro-7-(8-fluoronaphthalen-1-yl)-2-((hexahydro-1H-pyrrolizin-7a-yl)methoxy)pyrido[4,3-d]pyrimidin-4-yl)amino)bicyclo[1.1.1]pentan-1-ol]
6310	2.57	10700	1.47	1.59	1.25	6.84	29.8	1.58	Fc1c(-c2cccc3cccc(F)c23)ncc2c(NCc3ccc4[nH]cnc4c3)nc(OCC34CCCN3CCC4)nc12 [Example 80, N-((1H-benzo[d]imidazol-5-yl)methyl)-8-fluoro-7-(8-fluoronaphthalen-1-yl)-2-((hexahydro-1H-pyrrolizin-7a-yl)methoxy)pyrido[4,3-d]pyrimidin-4-amine]
1810	1.55	3270	2.6	1.02	1.06	1.4	2.28	1.25	O[C@@H]1C[C@H](O)CN(c2nc(OCC34CCCN3CCC4)nc3c(F)c(-c4cccc5cccc(F)c45)ncc23)C1 [Example 89, (3S,5R)-1-(8-fluoro-7-(8-fluoronaphthalen-1-yl)-2-((hexahydro-l H-pyrrolizin-7a-yl)methoxy)pyrido[4,3-d]pyrimidin-4-yl)piperidine-3,5-diol]
1250	0.368	1850	0.115	0.146	0.183	1.39	4.51	0.24	Fc1c(-c2cccc3cccc(F)c23)ncc2c(NCc3c[nH]c4ncccc34)nc(OCC34CCCN3CCC4)nc12 [Example 94, N-((1H-pyrrolo[2,3-b]pyridin-3-yl)methyl)-8-fluoro-7-(8-fluoronaphthalen-1-yl)-2-((tetrahydro-1H-pyrrolizin-7a(5H)-yl)methoxy)pyrido[4,3-d]pyrimidin-4-amine]

— US12398154B2, “Azaquinazoline pan-KRas inhibitors” (Mirati Therapeutics, Inc., priority 2020, dated 2025)
